Data published in PMC4470815, “Selective Cytotoxicity of 1,3,4-Thiadiazolium Mesoionic Derivatives on Hepatocarcinoma Cells (HepG2)” (PLoS ONE, 2015).

Target: T1, ABCG2 (Homo sapiens, UniProt Q9UNQ0)
T1 sequence (Q9UNQ0 1-655): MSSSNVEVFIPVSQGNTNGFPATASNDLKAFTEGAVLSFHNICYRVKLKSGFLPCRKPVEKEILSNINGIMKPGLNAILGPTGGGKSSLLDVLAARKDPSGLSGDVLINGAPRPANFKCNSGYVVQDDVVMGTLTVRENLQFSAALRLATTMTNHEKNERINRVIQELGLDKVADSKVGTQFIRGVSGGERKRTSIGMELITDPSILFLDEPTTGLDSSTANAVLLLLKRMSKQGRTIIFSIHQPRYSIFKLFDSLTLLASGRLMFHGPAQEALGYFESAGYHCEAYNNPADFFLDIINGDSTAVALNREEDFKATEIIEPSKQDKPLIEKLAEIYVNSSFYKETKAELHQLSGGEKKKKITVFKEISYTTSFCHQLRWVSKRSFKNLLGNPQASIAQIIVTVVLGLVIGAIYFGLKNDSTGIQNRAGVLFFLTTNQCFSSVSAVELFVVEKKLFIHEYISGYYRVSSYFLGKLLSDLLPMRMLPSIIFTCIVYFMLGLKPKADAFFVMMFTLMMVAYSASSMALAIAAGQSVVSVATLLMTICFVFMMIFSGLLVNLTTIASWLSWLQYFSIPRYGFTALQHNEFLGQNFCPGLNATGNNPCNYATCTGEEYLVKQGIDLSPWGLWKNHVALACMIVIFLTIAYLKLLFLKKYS
Assay: inhibition of mitoxantrone efflux in HEK293ABCG2 cells, flow cytometry
Assay type: cell-based
Conditions: read-out: ABCG2 / EC50

SMILES | IC50 [µM]
O=[N+]([O-])c1ccc(/C=C/c2sc(Nc3ccccc3)n[n+]2-c2ccccc2)cc1 [MI-D, 4-phenyl-5-(4-nitrocinnamoyl)-1,3,4-thiadiazolium-2-phenylamine chloride] | 24.3 ± 9.6
Oc1ccc(/C=C/c2sc(Nc3ccccc3)n[n+]2-c2ccccc2)cc1 [MI-J] | 8.5 ± 4.8
